Measurements from patent publication US7906498B2, “Cholesterol as an antibiotic for Streptococcus pneumoniae” (priority 2005, dated 2011).

What was measured:
[1] = test system: encapsulated S. pneumoniae; experiment: Rabbit S. pneumoniae keratitis, slit lamp examination (SLE) score; conditions: topical 1% cholesterol in 20% glycerol, 20 and 24 hours post-infection
[2] = test system: S. pneumoniae strains Avery's, R6, and TIGR4; experiment: In vitro incubation of log-phase S. pneumoniae with cholesterol (optical density, plating); type: cell-based, Streptococcus pneumoniae; conditions: 3 hours
Description: To determine if cholesterol is bactericidal, log-phase S. pneumoniae were incubated with cholesterol. Three S. pneumoniae strains, Avery's, R6, and TIGR4, were diluted from overnight cultures and grown to log phase (A600=0.3). These bacteria were then incubated with 1% cholesterol in 20% glycerol, 20% glycerol alone, or PBS. The optical density of each strain was determined once per hour for 3 hours, and bacterial loads were determined by plating dilutions of the bacteria onto chocolate agar. […] While cholesterol prevented growth in vitro (outside the cornea), cholesterol had no effect on bacterial growth in the cornea. (See above). Topical application of cholesterol could be used to decrease the numbers of S. pneumoniae on the outside surface of the cornea, and inhibit bacterial infiltration of the corneal surface.

[3] = test system: encapsulated S. pneumoniae; experiment: Bacterial load in infected rabbit corneas; type: in vivo, Streptococcus pneumoniae; conditions: topical application
Description: Sacrifice of the rabbits occurred immediately following the last SLE time (48 hours post-infection) to avoid unnecessary pain. Corneas were harvested for bacterial quantification or for histopathologic analysis. […] Bacterial loads were determined for control corneas (treated with 20% glycerol only) and corneas treated with the topical cholesterol (1% in 20% glycerol). The bacterial load in the control corneas ranged from 2.48 to 6.60 log colony-forming units, while in the treated corneas the load was 3.68 to 6.59 log colony-forming units.

Staphylococcus aureus = experiment: Rabbit Staphylococcus aureus keratitis treated with cholesterol; type: in vivo; conditions: cholesterol 1% in 20% glycerol
[4] = Test whether cholesterol independently causes inflammation in rabbit corneas (topical drops or intrastromal injection); type: in vivo; conditions: one cornea, examined up to 48 hours post-injection
Description: The applications were 30 minutes apart for the first hour, and the remaining applications were 1 hour apart. The corneas were examined periodically for several days. […] The possible effect of cholesterol injected into the corneal stroma was also examined. […] The corneas were examined every 2 hours for the first 8 hours, and then at 24, 30, and 48 hours post-injection.

alpha-toxin = alpha-toxin (Staphylococcus aureus, UniProt P09616); conditions: in vivo
Sequence of alpha-toxin (P09616 27-319 limits assumed): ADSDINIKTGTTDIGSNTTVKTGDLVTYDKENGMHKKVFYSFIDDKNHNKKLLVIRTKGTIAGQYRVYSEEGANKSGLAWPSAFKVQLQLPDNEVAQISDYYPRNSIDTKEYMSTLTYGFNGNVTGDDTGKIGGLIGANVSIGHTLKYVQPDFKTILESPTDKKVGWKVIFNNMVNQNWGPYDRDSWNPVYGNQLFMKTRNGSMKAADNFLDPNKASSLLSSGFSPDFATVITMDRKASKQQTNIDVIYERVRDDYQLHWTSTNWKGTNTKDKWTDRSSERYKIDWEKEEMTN

CC(C)CCC[C@@H](C)[C@H]1CC[C@H]2[C@@H]3CC=C4C[C@@H](O)CC[C@]4(C)[C@H]3CC[C@]12C [cholesterol]
corneal severity (SLE), treated versus untreated corneas [1]: essentially the same
effect on bacterial growth in vitro ([2]; strain Avery's, 1% cholesterol in 20% glycerol): prevented the growth
effect on bacterial growth in vitro ([2]; strain R6, 1% cholesterol in 20% glycerol): prevented the growth
bactericidal effect on bacteria once inside the cornea [3]: does not have a bactericidal effect
inhibition of damaging effects in S. aureus-infected corneas (Staphylococcus aureus): ineffective
inflammation or adverse effect after injection into corneal stroma ([4]; […]): No inflammation or adverse effect was observed
inflammation or adverse effect after injection into corneal stroma ([4]; injection of 0.5% cholesterol in 10% glycerol): No inflammation or adverse effect was observed
reduction of pathology associated with alpha-toxin (alpha-toxin): ineffective
